According to patent US12110295B2, “WD40 repeat domain protein 5 (WDR5) degradation/disruption compounds and methods of use” (Icahn School of Medicine at Mount Sinai, priority 2018, dated 2024):

Target: WDR5 (Homo sapiens, UniProt P61964)
Assay: Screening of putative WDR5 degraders by Western blot in MV4;11 and/or MIAPACA2 cells
Type: cell-based
Set-up: After WDR5 degrader treatment, cells were collected and lysed; endogenous in cells; host or cells: MV4;11 and/or MIAPACA2
Settings: summary of screening, FIGS. 6-10
Method in brief: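 MV4;11 (1×10^6/well) or MIAPACA2 (1×10^5/well) cells treated 18 h with compound at paired doses between 0.1 and 10 μM, DMSO as control. Total lysates immunoblotted for WDR5 with vinculin, tubulin or GAPDH loading controls; fluorescent secondary detection.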

SMILES	effective degradation of WDR5 in MV4;11 and/or MIAPACA2 cells
Cc1ncsc1-c1ccc(CNC(=O)[C@@H]2C[C@@H](O)CN2C(=O)[C@@H](NC(=O)CCCCC(=O)N2CCN(c3ncc(-c4cc(NC(=O)c5ccc(F)cc5C(F)(F)F)c(N5C[C@@H](C)N(C)[C@@H](C)C5)cc4F)cn3)CC2)C(C)(C)C)cc1 [XF078-110, (2S,4R)-1-((S)-2-(6-(4-(5-(2-fluoro-5-(4-fluoro-2-(trifluoromethyl)benzamido)-4-((3S,5R)-3,4,5-trimethylpiperazin-1-yl)phenyl)pyrimidin-2-yl)piperazin-1-yl)-6-oxohexanamido)-3,3-dimethylbutanoyl)-4-hydroxy-N-(4-(4-methylthiazol-5-yl)benzyl)pyrrolidine-2-carboxamide]	able to effectively degrade WDR5
Cc1ncsc1-c1ccc(CNC(=O)[C@@H]2C[C@@H](O)CN2C(=O)[C@@H](NC(=O)CCCCCCCNC(=O)c2ccc(-c3ccc(N4C[C@@H](C)N(C)[C@@H](C)C4)c(NC(=O)c4c[nH]c(=O)cc4C(F)(F)F)c3)c(F)c2)C(C)(C)C)cc1 [XF056-171, N-(2′-fluoro-4′-((8-(((S)-1-((2S,4R)-4-hydroxy-2-((4-(4-methylthiazol-5-yl)benzyl)carbamoyl)pyrrolidin-1-yl)-3,3-dimethyl-1-oxobutan-2-yl)amino)-8-oxooctyl)carbamoyl)-4-((3R,5S)-3,4,5-trimethylpiperazin-1-yl)-[1,1′-biphenyl]-3-yl)-6-oxo-4-(trifluoromethyl)-1,6-dihydropyridine-3-carboxamide]	able to effectively degrade WDR5
Cc1ncsc1-c1ccc(CNC(=O)[C@@H]2C[C@@H](O)CN2C(=O)[C@@H](NC(=O)COCCOCCNC(=O)CCC(=O)N2CCN(c3ccc(-c4cc(NC(=O)c5c[nH]c(=O)cc5C(F)(F)F)c(N5C[C@@H](C)N(C)[C@@H](C)C5)cc4F)cn3)CC2)C(C)(C)C)cc1 [XF067-142, N-(4-fluoro-5-(6-(4-((S)-3-((2S,4R)-4-hydroxy-2-((4-(4-methylthiazol-5-yl)benzyl)carbamoyl)pyrrolidine-1-carbonyl)-2,2-dimethyl-5,14-dioxo-7,10-dioxa-4,13-diazaheptadecan-17-oyl)piperazin-1-yl)pyridin-3-yl)-2-((3S,5R)-3,4,5-trimethylpiperazin-1-yl)phenyl)-6-oxo-4-(trifluoromethyl)-1,6-dihydropyridine-3-carboxamide]	able to effectively degrade WDR5
Cc1ncsc1-c1ccc(CNC(=O)[C@@H]2C[C@@H](O)CN2C(=O)[C@@H](NC(=O)CCCCCCCCCCCC(=O)NCCN2CCN(Cc3cccc(-c4ccc(N5CCN(C)CC5)c(NC(=O)c5c[nH]c(=O)cc5C(F)(F)F)c4)c3)CC2)C(C)(C)C)cc1 [XF050-161, N^1-((S)-1-((2S,4R)-4-hydroxy-2-((4-(4-methylthiazol-5-yl)benzyl)carbamoyl)pyrrolidin-1-yl)-3,3-dimethyl-1-oxobutan-2-yl)-N^13-(2-(4-((4′-(4-methylpiperazin-1-yl)-3′-(6-oxo-4-(trifluoromethyl)-1,6-dihydropyridine-3-carboxamido)-[1,1′-biphenyl]-3-yl)methyl)piperazin-1-yl)ethyl)tridecanediamide]	able to effectively degrade WDR5
Cc1ncsc1-c1ccc(CNC(=O)[C@@H]2C[C@@H](O)CN2C(=O)[C@@H](NC(=O)CCCCCCCCC(=O)N2CCN(c3ncc(-c4cc(NC(=O)c5ccc(F)cc5C(F)(F)F)c(N5C[C@@H](C)N(C)[C@@H](C)C5)cc4F)cn3)CC2)C(C)(C)C)cc1 [XF078-114, (2S,4R)-1-((S)-2-(10-(4-(5-(2-fluoro-5-(4-fluoro-2-(trifluoromethyl)benzamido)-4-((3S,5R)-3,4,5-trimethylpiperazin-1-yl)phenyl)pyrimidin-2-yl)piperazin-1-yl)-10-oxodecanamido)-3,3-dimethylbutanoyl)-4-hydroxy-N-(4-(4-methylthiazol-5-yl)benzyl)pyrrolidine-2-carboxamide]	able to effectively degrade WDR5
C[C@@H]1CN(c2ccc(-c3cc(CN4CCN(CCNC(=O)CCOCCOCCOCCNc5cccc6c5C(=O)N(C5CCC(=O)NC5=O)C6=O)CC4)ccc3F)cc2NC(=O)c2c[nH]c(=O)cc2C(F)(F)F)C[C@H](C)N1C (stereo partly drawn) [XF078-27, N-(5′-((4-(1-((2-(2,6-dioxopiperidin-3-yl)-1,3-dioxoisoindolin-4-yl)amino)-12-oxo-3,6,9-trioxa-13-azapentadecan-15-yl)piperazin-1-yl)methyl)-2′-fluoro-4-((3S,5R)-3,4,5-trimethylpiperazin-1-yl)-[1,1′-biphenyl]-3-yl)-6-oxo-4-(trifluoromethyl)-1,6-dihydropyridine-3-carboxamide]	able to effectively degrade WDR5
Cc1ncsc1-c1ccc(CNC(=O)[C@@H]2C[C@@H](O)CN2C(=O)[C@@H](NC(=O)COCCOCCOCCOCCOCC(=O)N2CCN(c3ncc(-c4cc(NC(=O)c5ccc(F)cc5C(F)(F)F)c(N5C[C@@H](C)N(C)[C@@H](C)C5)cc4F)cn3)CC2)C(C)(C)C)cc1 [XF078-106, (2S,4R)-1-((S)-2-(tert-butyl)-20-(4-(5-(2-fluoro-5-(4-fluoro-2-(trifluoromethyl)benzamido)-4-((3S,5R)-3,4,5-trimethylpiperazin-1-yl)phenyl)pyrimidin-2-yl)piperazin-1-yl)-4,20-dioxo-6,9,12,15,18-pentaoxa-3-azaicosanoyl)-4-hydroxy-N-(4-(4-methylthiazol-5-yl)benzyl)pyrrolidine-2-carboxamide]	able to effectively degrade WDR5
Cc1ncsc1-c1ccc(CNC(=O)[C@@H]2C[C@@H](O)CN2C(=O)[C@@H](NC(=O)CCOCCOCCOCCOCCC(=O)N2CCN(c3ncc(-c4cc(NC(=O)c5ccc(F)cc5C(F)(F)F)c(N5C[C@@H](C)N(C)[C@@H](C)C5)cc4F)cn3)CC2)C(C)(C)C)cc1 [XF078-105, (2S,4R)-1-((S)-2-(tert-butyl)-19-(4-(5-(2-fluoro-5-(4-fluoro-2-(trifluoromethyl)benzamido)-4-((3S,5R)-3,4,5-trimethylpiperazin-1-yl)phenyl)pyrimidin-2-yl)piperazin-1-yl)-4,19-dioxo-7,10,13,16-tetraoxa-3-azanonadecanoyl)-4-hydroxy-N-(4-(4-methylthiazol-5-yl)benzyl)pyrrolidine-2-carboxamide]	able to effectively degrade WDR5
Cc1ncsc1-c1ccc(CNC(=O)[C@@H]2C[C@@H](O)CN2C(=O)[C@@H](NC(=O)COCC(=O)N2CC=C(c3cc(NC(=O)c4c[nH]c(=O)cc4C(F)(F)F)c(N4C[C@@H](C)N(C)[C@@H](C)C4)cc3F)CC2)C(C)(C)C)cc1 [XF078-30, N-(4-fluoro-5-(1-(2-(2-(((S)-1-((2S,4R)-4-hydroxy-2-((4-(4-methylthiazol-5-yl)benzyl)carbamoyl)pyrrolidin-1-yl)-3,3-dimethyl-1-oxobutan-2-yl)amino)-2-oxoethoxy)acetyl)-1,2,3,6-tetrahydropyridin-4-yl)-2-((3S,5R)-3,4,5-trimethylpiperazin-1-yl)phenyl)-6-oxo-4-(trifluoromethyl)-1,6-dihydropyridine-3-carboxamide]	able to effectively degrade WDR5
Cc1ncsc1-c1ccc(CNC(=O)[C@@H]2C[C@@H](O)CN2C(=O)[C@@H](NC(=O)CCCCCCCCCC(=O)N2CC=C(c3cc(NC(=O)c4c[nH]c(=O)cc4C(F)(F)F)c(N4C[C@@H](C)N(C)[C@@H](C)C4)cc3F)CC2)C(C)(C)C)cc1 [XF078-46, N-(4-fluoro-5-(1-(11-(((S)-1-((2S,4R)-4-hydroxy-2-((4-(4-methylthiazol-5-yl)benzyl)carbamoyl)pyrrolidin-1-yl)-3,3-dimethyl-1-oxobutan-2-yl)amino)-11-oxoundecanoyl)-1,2,3,6-tetrahydropyridin-4-yl)-2-((3S,5R)-3,4,5-trimethylpiperazin-1-yl)phenyl)-6-oxo-4-(trifluoromethyl)-1,6-dihydropyridine-3-carboxamide]	able to effectively degrade WDR5
Cc1ncsc1-c1ccc(CNC(=O)[C@@H]2C[C@@H](O)CN2C(=O)[C@@H](NC(=O)CCOCCOCCOCCC(=O)N2CCN(Cc3cnc(N4CC=C(c5cc(NC(=O)c6c[nH]c(=O)cc6C(F)(F)F)c(N6C[C@@H](C)N(C)[C@@H](C)C6)cc5F)CC4)nc3)CC2)C(C)(C)C)cc1 [XF078-137, N-(4-fluoro-5-(1-(5-((4-((S)-15-((2S,4R)-4-hydroxy-2-((4-(4-methylthiazol-5-yl)benzyl)carbamoyl)pyrrolidine-1-carbonyl)-16,16-dimethyl-13-oxo-4,7,10-trioxa-14-azaheptadecanoyl)piperazin-1-yl)methyl)pyrimidin-2-yl)-1,2,3,6-tetrahydropyridin-4-yl)-2-((3S,5R)-3,4,5-trimethylpiperazin-1-yl)phenyl)-6-oxo-4-(trifluoromethyl)-1,6-dihydropyridine-3-carboxamide]	able to effectively degrade WDR5
Cc1ncsc1-c1ccc(CNC(=O)[C@@H]2C[C@@H](O)CN2C(=O)[C@@H](NC(=O)CCCCCC(=O)N2CC=C(c3cc(NC(=O)c4c[nH]c(=O)cc4C(F)(F)F)c(N4C[C@@H](C)N(C)[C@@H](C)C4)cc3F)CC2)C(C)(C)C)cc1 [XF078-42, N-(4-fluoro-5-(1-(7-(((S)-1-((2S,4R)-4-hydroxy-2-((4-(4-methylthiazol-5-yl)benzyl)carbamoyl)pyrrolidin-1-yl)-3,3-dimethyl-1-oxobutan-2-yl)amino)-7-oxoheptanoyl)-1,2,3,6-tetrahydropyridin-4-yl)-2-((3S,5R)-3,4,5-trimethylpiperazin-1-yl)phenyl)-6-oxo-4-(trifluoromethyl)-1,6-dihydropyridine-3-carboxamide]	able to effectively degrade WDR5
